# Results as given in US20150336985A1, “FUNGICIDAL HETEROCYCLIC COMPOUNDS” (E. I. DU PONT DE NEMOURS AND COMPANY, priority 2012, published 2015).
# Columns and labels:
# Plasmopara viticola = assay: Test A: grape downy mildew, curative spray on inoculated grape seedlings, visual disease rating; assay type: in vivo, Plasmopara viticola (on grape seedlings); conditions: 40 ppm, rating 100 = 100% disease control, 0 = no disease control relative to the controls
# Phytophthora infestans [1] = assay type: in vivo, Phytophthora infestans (on tomato seedlings); conditions: 40 ppm; tomato late blight, preventive; rating 100 = 100% disease control, 0 = no disease control relative to the controls
# Phytophthora infestans [2] = assay type: in vivo, Phytophthora infestans (on tomato seedlings); conditions: 40 ppm; tomato late blight, curative (17 h after inoculation); rating 100 = 100% disease control, 0 = no disease control relative to the controls
Structure (SMILES),Test A rating (disease control) (Plasmopara viticola),Test B1 rating (disease control) (Phytophthora infestans [1]),Test B2 rating (disease control) (Phytophthora infestans [2])
"Cc1cc(C(F)(F)F)nn1CC(=O)N1CCC(c2nc3c(s2)CCC(Cc2c(F)cccc2F)C3=O)CC1 (single isomer, unassigned) [Compound 6, 5-[(2,6-difluorophenyl)methyl]-6,7-dihydro-2-[1-[2-[5-methyl-3-(trifluoromethylene)-1H-pyrazol-1-yl]acetyl]-4-piperidinyl]-4(5H)-benzothiazolone]",78,100,78
"Cc1cc(C(F)(F)F)nn1CC(=O)N1CCC(c2nc3c(s2)CCC(Cc2c(F)cccc2F)C3=O)CC1 (single isomer, unassigned) [Compound 5, 5-[(2,6-difluorophenyl)methyl]-6,7-dihydro-2-[1-[2-[5-methyl-3-(trifluoromethyl)-1H-pyrazol-1-yl]acetyl]-4-piperidinyl]-4(5H)-benzonthiazolone]",99,100,99
"Cc1cc(C(F)(F)F)nn1CC(=O)N1CCC(c2nc3c(s2)CCN(Cc2ccccc2)C3=O)CC1 [Compound 8, 6,7-dihydro-2-[1-[2-[5-methyl-3-(trifluoromethyl)-1H-pyrazol-1-yl]acetyl]-4-piperidinyl]-5-(phenylmethyl)thiazolo[4,5-c]pyridin-4(5H)-one]",100,100,99
